Laboratory results as given in patent publication US4988687A, “Cephalosporin derivatives, and antibacterial agents” (priority 1986, dated 1991).
≈ marks a conversion by molar mass, not a printed value. Read-outs that look alike come from different tables or passages of the source.

Tests used:
[1] = system: A. calcoaceticus No. 4; assay: agar plate dilution method, MIC against A. calcoaceticus No. 4; assay type: cell-based; conditions: Acinetobacter calcoaceticus, read-out: Minimum Inhibitory Concentration (MIC)
Description: (§1) The in vitro antibacterial activities of the compounds of the present invention against various microorganisms, were measured by the following agar plate dilution method. One platinum loopfull of each test microorganism incubated overnight in Mueller Hinton broth, was inoculated to Mueller Hinton agar (inoculum size: 10^6 CFU/ml) Such culture media containing various antibiotics in various concentrations were prepared After incubation at 37° C. for 16 hours, the minimum inhibitory concentrations (MIC: μg/ml) were measured. As comparative compounds, cefotaxime, oeftazidime and the compounds disclosed in Example 2 of Japanese Unexamined Patent Publication No. 215690/1985 e.g. sodium 7-[2-(2-aminothiazol-4-yl)-2-ethoxyiminoacetamido]-3-(1-carboxylatemethylpyridinio-4-yl)thiomethyl-3-cephem-4-carboxylate (hereinafter referred to simply as "Reference Example A") were employed.

[2] = system: S. marcescens No. 16-2; assay: agar plate dilution method, MIC against S. marcescens No. 16-2; assay type: cell-based; conditions: Serratia marcescens, NO.162, 16 h, read-out: Minimum Inhibitory Concentration (MIC)
Description: as §1

[3] = system: C. freundii GN346/16; assay: agar plate dilution method, MIC against C. freundii GN346/16; assay type: cell-based; conditions: Citrobacter freundii; C. freundii GN346/16; 10^6 CFU/ml, 37° C., 16 hours; read-out: Minimum Inhibitory Concentration (MIC)
Description: as §1

[4] = system: K. pneumoniae PCI-602; assay: agar plate dilution method, MIC against K. pneumoniae PCI-602; assay type: cell-based; conditions: Klebsiella pneumoniae, PCI602, 16 h, read-out: Minimum Inhibitory Concentration (MIC)
Description: as §1

[5] = system: M. luteus ATCC9341; assay: agar plate dilution method, MIC against M. luteus ATCC9341; assay type: cell-based; conditions: Micrococcus luteus, read-out: Minimum Inhibitory Concentration (MIC)
Description: as §1

[6] = system: E. cloacae Nek 39; assay: agar plate dilution method, MIC against E. cloacae Nek 39; assay type: cell-based; conditions: Enterobacter cloacae, NEK39; E. cloacae Nek 39 (lactamase-producing strain); 10^6 CFU/ml, 37° C., 16 hours; read-out: Minimum Inhibitory Concentration (MIC)
Description: as §1

[7] = system: S. marcescens IAM 1184; assay: agar plate dilution method, MIC against S. marcescens IAM 1184; assay type: cell-based; conditions: Serratia marcescens, read-out: Minimum Inhibitory Concentration (MIC)
Description: as §1

[8] = system: S. epidermidis IAM12012; assay: agar plate dilution method, MIC against S. epidermidis IAM12012; assay type: cell-based; conditions: Staphylococcus epidermidis, read-out: Minimum Inhibitory Concentration (MIC)
Description: as §1

[9] = system: E. coli CSH(RE45); assay: agar plate dilution method, MIC against E. coli CSH(RE45); assay type: cell-based; conditions: Escherichia coli, 16 h, read-out: Minimum Inhibitory Concentration (MIC)
Description: as §1

[10] = system: E. coli GN5482; assay: agar plate dilution method, MIC against E. coli GN5482; assay type: cell-based; conditions: Escherichia coli; E. coli GN5482 (lactamase-producing strain); 10^6 CFU/ml, 37° C., 16 hours; read-out: Minimum Inhibitory Concentration (MIC)
Description: as §1

[11] = system: S. aureus 209P NIHJ-JC1; assay: agar plate dilution method, MIC against S. aureus 209P NIHJ-JC1; assay type: cell-based; conditions: Staphylococcus aureus, read-out: Minimum Inhibitory Concentration (MIC)
Description: as §1

[12] = system: K. pneumoniae No. 42; assay: agar plate dilution method, MIC against K. pneumoniae No. 42; assay type: cell-based; conditions: Klebsiella pneumoniae; K. pneumoniae No. 42 (lactamase-producing strain); 10^6 CFU/ml, 37° C., 16 hours; read-out: Minimum Inhibitory Concentration (MIC)
Description: as §1

[13] = system: E. coli NIHJ JC2; assay: agar plate dilution method, MIC against E. coli NIHJ JC2; assay type: cell-based; conditions: Escherichia coli, NIHJJC2; E. coli NIHJ JC2; 10^6 CFU/ml, 37° C., 16 hours; read-out: Minimum Inhibitory Concentration (MIC)
Description: as §1

[14] = system: Ps. cepacia 23; assay: agar plate dilution method, MIC against Ps. cepacia 23; assay type: cell-based, Pseudomonas cepacia; conditions: read-out: Minimum Inhibitory Concentration (MIC)
Description: as §1

[15] = system: Ps. maltophilia GN 12873; assay: agar plate dilution method, MIC against Ps. maltophilia GN 12873; assay type: cell-based, Pseudomonas maltophilia; conditions: Stenotrophomonas maltophilia, GN12873; Ps. maltophilia GN 12873 (lactamase-producing strain); 10^6 CFU/ml, 37° C., 16 hours; read-out: Minimum Inhibitory Concentration (MIC)
Description: as §1

[16] = system: E. cloacae 963; assay: agar plate dilution method, MIC against E. cloacae 963; assay type: cell-based; conditions: Enterobacter cloacae; E. cloacae 963; 10^6 CFU/ml, 37° C., 16 hours; read-out: Minimum Inhibitory Concentration (MIC)
Description: as §1

[17] = system: E. coli CSH2 (RK1); assay: agar plate dilution method, MIC against E. coli CSH2 (RK1); assay type: cell-based; conditions: Escherichia coli, 16 h, read-out: Minimum Inhibitory Concentration (MIC)
Description: as §1

[18] = system: P. vulgaris No. 33; assay: agar plate dilution method, MIC against P. vulgaris No. 33; assay type: cell-based; conditions: Proteus vulgaris, read-out: Minimum Inhibitory Concentration (MIC)
Description: as §1

[19] = system: S. aureus JS1; assay: agar plate dilution method, MIC against S. aureus JS1; assay type: cell-based; conditions: Staphylococcus aureus, read-out: Minimum Inhibitory Concentration (MIC)
Description: as §1

[20] = system: Ps. aeruginosa AK 109; assay: agar plate dilution method, MIC against Ps. aeruginosa AK 109; assay type: cell-based; conditions: Pseudomonas aeruginosa, AK109, 16 h, read-out: Minimum Inhibitory Concentration (MIC)
Description: as §1

[21] = system: Ps. aeruginosa IFO3445; assay: agar plate dilution method, MIC against Ps. aeruginosa IFO3445; assay type: cell-based; conditions: Pseudomonas aeruginosa, IFO3445, 16 h, read-out: Minimum Inhibitory Concentration (MIC)
Description: as §1

[22] = system: K. oxytoca GN10650; assay: agar plate dilution method, MIC against K. oxytoca GN10650; assay type: cell-based; conditions: Klebsiella oxytoca, read-out: Minimum Inhibitory Concentration (MIC)
Description: as §1

[23] = system: M. morganii GN5407; assay: agar plate dilution method, MIC against M. morganii GN5407; assay type: cell-based; conditions: Morganella morganii; M. morganii GN5407 (lactamase-producing strain); 10^6 CFU/ml, 37° C., 16 hours; read-out: Minimum Inhibitory Concentration (MIC)
Description: as §1

[24] = system: Ps. aeruginosa AKR17; assay: agar plate dilution method, MIC against Ps. aeruginosa AKR17; assay type: cell-based; conditions: Pseudomonas aeruginosa; Ps. aeruginosa AKR17; 10^6 CFU/ml, 37° C., 16 hours; read-out: Minimum Inhibitory Concentration (MIC)
Description: as §1

[25] = system: P. vulgaris HX-19; assay: agar plate dilution method, MIC against P. vulgaris HX-19; assay type: cell-based; conditions: Proteus vulgaris, HX19, 16 h, read-out: Minimum Inhibitory Concentration (MIC)
Description: as §1

[26] = system: C. freundii GN346; assay: agar plate dilution method, MIC against C. freundii GN346; assay type: cell-based; conditions: Citrobacter freundii; C. freundii GN346 (lactamase-producing strain); 10^6 CFU/ml, 37° C., 16 hours; read-out: Minimum Inhibitory Concentration (MIC)
Description: as §1

[27] = system: S. aureus BB5703; assay: agar plate dilution method, MIC against S. aureus BB5703; assay type: cell-based; conditions: Staphylococcus aureus, read-out: Minimum Inhibitory Concentration (MIC)
Description: as §1

| SMILES | MIC [2] [µg/mL] | MIC [3] [µg/mL] | MIC [4] [ng/mL] | MIC [6] [µg/mL] | MIC [9] [µg/mL] | MIC [10] [µg/mL] | MIC [12] [µg/mL] | MIC [13] [µg/mL] | MIC [15] [µg/mL] | MIC [16] [µg/mL] | MIC [17] [µg/mL] | MIC [20] [µg/mL] | MIC [21] [µg/mL] | MIC [23] [µg/mL] | MIC [24] [µg/mL] | MIC [25] [µg/mL] | MIC [26] [µg/mL] | other results |
| --- | --- | --- | --- | --- | --- | --- | --- | --- | --- | --- | --- | --- | --- | --- | --- | --- | --- | --- |
| Nc1nc(C(=NOCc2ccc(O)c(O)c2)C(=O)NC2C(=O)N3C(C(=O)[O-])=C(CSc4cc[n+](CC(=O)O)cc4)CSC23)cs1 (stereo not drawn) [Example 4, 7-[2-(2-aminothiazol-4-yl)-2-(3,4-dihydroxybenzyloxyimino)acetamido]-3-(1-carboxymethylpyridinio-4-yl)thiomethyl-3-cephem-4-carboxylate (syn-isomer)] | 6.25 (≈ 9.29 µM) | 0.2 (≈ 0.297 µM) | < 6 | 0.78 (≈ 1.16 µM) | 0.025 (≈ 0.0372 µM) | 0.39 (≈ 0.58 µM) | 0.2 (≈ 0.297 µM) | 0.05 (≈ 0.0743 µM) | > 100 | 0.1 (≈ 0.149 µM) | 0.05 (≈ 0.0743 µM) | 1.56 (≈ 2.32 µM) | 3.12 (≈ 4.64 µM) | 0.1 (≈ 0.149 µM) | > 100 | 0.025 (≈ 0.0372 µM) | 6.25 (≈ 9.29 µM) | MIC ([1]; NO.4, 16 h): 1.56 µg/mL (≈ 2.32 µM); MIC ([5]; M. luteus ATCC9341, 10^6 CFU/ml, 37° C., 16 hours): 0.39 µg/mL (≈ 0.58 µM); MIC ([7]; IAM1184, S. marcescens IAM 1184, 10^6 CFU/ml, 37° C., 16 hours): 0.1 µg/mL (≈ 0.149 µM); MIC ([8]; S. epidermidis IAM12012, 10^6 CFU/ml, 37° C., 16 hours): 0.78 µg/mL (≈ 1.16 µM); MIC ([11]; S. aureus 209P NIHJ-JC1, 10^6 CFU/ml, Mueller Hinton agar, 37° C., 16 hours): 0.39 µg/mL (≈ 0.58 µM); MIC ([14]; Burkholderia cepacia, Ps. cepacia 23, 10^6 CFU/ml, 37° C., 16 hours): 0.39 µg/mL (≈ 0.58 µM); MIC ([18]; P. vulgaris No. 33 (lactamase-producing strain), 10^6 CFU/ml, 37° C., 16 hours): 0.2 µg/mL (≈ 0.297 µM); MIC ([19]; JS1, 16 h): 6.25 µg/mL (≈ 9.29 µM); MIC ([22]; GN10650, 16 h): 0.78 µg/mL (≈ 1.16 µM); MIC ([27]; BB5703, 16 h): 3.12 µg/mL (≈ 4.64 µM) |
| C=C(O/N=C(\C(=O)NC1C(=O)N2C(C(=O)[O-])=C(CSc3cc[n+](CC(=O)O)cc3)CSC12)c1csc(N)n1)C(=O)O (stereo not drawn) [Example 1, 7-[2-(2-aminothiazol-4-yl)-2-(1-carboxy-1-vinyloxyimino)acetamido]-3-(1-carboxymethylpyridinio-4-yl)thiomethyl-4-carboxylate (syn-isomer)] | 1.56 (≈ 2.51 µM) | 0.1 (≈ 0.161 µM) | < 6 | 0.78 (≈ 1.26 µM) | 0.1 (≈ 0.161 µM) | 0.2 (≈ 0.322 µM) | 0.2 (≈ 0.322 µM) | 0.1 (≈ 0.161 µM) | > 100 | 0.1 (≈ 0.161 µM) | 0.05 (≈ 0.0806 µM) | 3.12 (≈ 5.03 µM) | 1.56 (≈ 2.51 µM) | 0.0125 (≈ 0.0201 µM) | > 100 | < 0.006 | 25 (≈ 40.3 µM) | MIC ([1]; A. calcoaceticus No. 4, 10^6 CFU/ml, 37° C., 16 hours): 50 µg/mL (≈ 80.6 µM); MIC ([5]; ATCC9341, 16 h): 1.56 µg/mL (≈ 2.51 µM); MIC ([7]; IAM1184, 16 h): < 0.006 µg/mL; MIC ([8]; IAM12012, 16 h): 1.56 µg/mL (≈ 2.51 µM); MIC ([11]; 16 h): 3.12 µg/mL (≈ 5.03 µM); MIC ([14]; Burkholderia cepacia, 23, 16 h): 1.56 µg/mL (≈ 2.51 µM); MIC ([18]; NO.33, 16 h): 0.0125 µg/mL (≈ 0.0201 µM); MIC ([19]; S. aureus JS1 (methicilline resistant; lactamase-producing strain), 10^6 CFU/ml, 37° C., 16 hours): 50 µg/mL (≈ 80.6 µM); MIC ([22]; K. oxytoca GN10650 (lactamase-producing strain), 10^6 CFU/ml, 37° C., 16 hours): 0.2 µg/mL (≈ 0.322 µM); MIC ([27]; S. aureus BB5703, 10^6 CFU/ml, 37° C., 16 hours): 25 µg/mL (≈ 40.3 µM) |
